From a melting point compilation (Tetko et al.; mined from patent text by program, amines drawn as free bases though some values may be those of a salt)

melting point [°C]	Structure (SMILES)
110 to 111	COC(=O)c1ccc(CNC(C)=O)cc1
184 to 186	CCOC(=O)C(=CN(C)C)C(=O)c1cc(F)c(N2CCC(NC(C)=O)C2)nc1Nc1ccc(F)cc1F (stereo unspecified)
156	CCOC(=O)Cc1nnc(-c2ccc(OC)cc2)n1-c1ccc(OC)cc1
118 to 119	CN(C(c1ccc(F)cc1)c1ccc(Cl)cc1Cl)n1cncn1 (stereo unspecified)
143 to 144	CS(=O)(=O)c1ccc(/C(=C(\CCO[N+](=O)[O-])C(=O)O)c2ccc(Cl)cc2)cc1
133 to 140	CNC(=O)CCC(=O)c1ccc(OCC2CO2)cc1 (stereo unspecified)
198 to 202	CCN1CCN(CC(=O)OCCOC)C(=O)c2ccc(Nc3ncc(Cl)c(Nc4ccccc4C(=O)NC)n3)cc21
172 to 173	COc1c(Cl)ccc(-c2nc(N)c(Cl)c(C(=O)O)n2)c1F
184 to 185	CONC(=O)Cc1c(C)n(C(=O)c2ccc(Cl)cc2)c2ccc(OC)cc12
202	CCOC(=O)c1cn(CCO)c2cc(Cl)c(F)cc2c1=O
268 to 270	CC(C)Oc1ccc(-n2c(-c3ccc(C(=O)O)cc3)c(C(=O)O)c3cc(Oc4ccc(C(F)(F)F)cc4)ccc32)cc1
140 to 142	CCOC(Cc1ccc(OCCn2c(CC)nc(-c3ccccc3)cc2=O)cc1)C(=O)O (stereo unspecified)
121 to 130	COc1ccc(-c2nc(NC(=N)N)sc2-c2ccc(OC)cc2)cc1
174 to 175	CCCCCS(=O)(=O)NC(=O)/C=C/c1ccc(OCCOC)cc1Nc1ccc(C(F)(F)F)cc1Cl
95 to 96	CCOC(=O)C1CCc2c(n(C(C)=O)c3ccc(Cl)cc23)C1 (stereo unspecified)
163 to 164	NNc1ccc(C(=O)c2ccccc2)cc1[N+](=O)[O-]
196 to 197	O=C(O)CCc1oc(=S)[nH]c1-c1ccc(Cl)cc1
89 to 91	COc1cccc(/C(=C\C=C\C(=O)NCCCCc2cccnc2)c2ccccc2)c1
199 to 201	CC(C)(C)NCC(O)COc1ccccc1C#Cc1ccc(C(N)=O)cc1 (stereo unspecified)
149 to 150	COc1ccc(-c2nc(O)c(C)s2)cc1
124 to 125	Cc1cccc(Oc2ccc(Cl)cc2C(=O)O)c1
173 to 174	CCc1cc(COc2nn(Cc3ccccc3)cc2C(=O)O)ccc1OCc1nc(-c2ccco2)oc1C
120	CN(C)C(=O)c1ccc(S(=O)(=O)c2ccc(NC(=O)[C@@](C)(O)C(F)(F)F)c(Cl)c2)cc1
129 to 130	COc1ccc(Oc2ncnc(-c3ccc(C(F)(F)F)cc3F)c2N)cc1
108 to 109	CCOc1cc(F)ccc1N1CCN(Cc2ccc(CNC(C)=O)cc2)CC1
200 to 201	CCCCc1nc(C(C)O)c(C#N)n1Cc1ccc(-c2ccccc2C(=O)O)cc1 (stereo unspecified)
140 to 142	CCC(Oc1ccc(Cl)cc1)C(=O)OC1CC(O)C=C2C=CC(C)C(CCC3CC(O)CC(=O)O3)C21 (mixture of isomers)
153 to 154	Cc1cc(C(O)=S)cc(N)c1Cc1ccccc1

More lines, now with the values behind:

Structure (SMILES)	melting point [°C]
CCCCC(Cc1cc(C(C)(C)C)c(O)c(C(C)(C)C)c1)(C(=O)OC1CC(C)(C)N(OC)C(C)(C)C1)C(=O)OC1CC(C)(C)N(OC)C(C)(C)C1	111 to 113
CCNC(=O)c1cccs1	75 to 78
O=c1cc(-c2cccc(Br)c2)sc(N2CCOCC2)c1	181 to 182
CC1C=C(c2nnn[nH]2)CN(CC(=O)O)C1 (stereo unspecified)	150 to 152
O=C(Oc1ccc(Oc2ccc(C(F)(F)F)cn2)cc1)N1CCN(c2cnccn2)CC1	160 to 161
Cc1nc2c(C)cccn2c(=O)c1CCN1CC=C(c2c[nH]c3ccccc23)CC1	210 to 212
CCOC(=O)c1c(O)nsc1C	69
O=Cc1ccc(O)c(OCc2ccccc2)c1	123 to 124
COc1ccc(Cl)cc1C(=O)NCCC1CCN(S(=O)(=O)NC(=S)NC2CCCCC2)CC1	146 to 148
CC(=O)Nc1ncsc1C	62 to 64
COc1ccc(N2CCN(c3ccc(-n4cnn(C(C)C(F)(F)F)c4=O)cc3)CC2)cc1 (stereo unspecified)	199
COc1c(C)c(C)c(OC)c(C(O)(c2cccnc2)C2CCCC2)c1C (stereo unspecified)	126 to 127
Cc1cc2c([N+](=O)[O-])cccc2c(Cl)n1	112
CC1(C)C=C(n2cccnc2=O)c2cc(C#N)ccc2O1	250 to 252
CC(=CC(=O)N1CCCC1C(=O)O)C(=O)c1ccc(Br)cc1 (stereo unspecified)	137 to 144
CC(=O)OC1CCC2(C)C(=CCC3C2CCC2(C)C(C(C)C(O)CCC(C)(C)C)CCC32)C1 (stereo unspecified)	185 to 187
O=C(N1CCCC1)C(CCN1CCC(O)(c2ccccc2)CC1)(c1ccccc1)c1ccccc1	188
c1ccc(CC2=NOC3(CCNCC3)C2)cc1	51 to 54
CSc1ccc(C=O)cc1OC(C)C	50 to 54
O=c1[nH]nc2n1-c1ccc(N3CCCC3)nc1C(c1ccccc1Cl)=[N+]([O-])C2	200
CCCn1c(=O)c2c(nc(/C=C/c3ccc4c(c3)OCO4)n2C)n(CCC)c1=O	152 to 155
COCCNS(=O)(=O)c1cccc(Nc2nccc(-c3sc(C)nc3C)n2)c1	197 to 198

Structure (SMILES)	melting point [°C]
Cc1ncn(-c2ccc(N)cc2F)n1	122 to 125
CCCOc1ccc(C(O)CN2CCOCC2)cc1-c1nc2c(CCC)nn(C)c2c(=O)[nH]1 (stereo unspecified)	104 to 105
N#Cc1ccc(C#N)c(Sc2ccccc2)c1	106
O=C1OC(Cc2ccccc2)=NC1=Cc1cccs1	193 to 195
CC1(C)CC(=O)c2c(NCc3ccco3)sc(-c3cc[nH]n3)c2C1	204 to 206
CCCCCCCOc1ccc(C(C)O)cc1 (single isomer, unassigned; (+))	36.7
CNc1c(C(=O)OC)cccc1[N+](=O)[O-]	138 to 140
c1ccc(-c2ncc(-c3nnn[nH]3)cn2)cc1	237
O=C1CCCC2=C1C(c1ccc(F)c(C(F)(F)F)c1)C1=C(CCS1)N2 (single isomer, unassigned; (+))	> 250
CSc1c(O[C@H]2CC[C@@H](N(C)C)CC2)ccc2[nH]ncc12	139 to 140
CCOc1ccc(-c2cc(C(F)(F)F)n3ncc(-c4cccnc4)c3n2)cc1C(F)(F)F	178
c1ccc2c(c1)CCC(n1cncn1)C21OCCO1 (stereo unspecified)	108
CC1(C)C2CC[C@@]1(N1CCOCC1)[C@H](O)C2	35 to 36
CCN(CC)CC#CC(=O)c1ccc(C)cc1	115 to 117
CC(C)C(=O)Nc1ccccc1C(F)(F)F	114
Cc1cc(N(C)C)ccc1C=Nc1cc(Cl)c(N=CN(C)C)c(Cl)c1	64 to 65
CCCCCCCCOc1ccc(-c2ccc(C(C)OC(=O)CCCCC)cc2)cc1 (single isomer, unassigned; (-))	60.8
CCCCOc1ccc(S(=O)(=O)C2(C(=O)O)CCN(CCOc3ccccc3)CC2)cc1	204
OC(CCc1ccc(Br)cc1)Cn1ccnc1 (stereo unspecified)	121 to 122
Cc1n[nH]c(-c2ccc(Br)cc2)c1NC(=O)c1cccnc1	262 to 264
CC(C)c1nn(-c2ccc(C(F)(F)F)cn2)cc1CCCCOS(C)(=O)=O	87 to 89
